Measured values reported in paper PMC6508583 (Journal of the American Chemical Society, 2019).
In brackets after ≈: the same amount, converted by molar mass. Several values for one entry are separate records, joined by “and”; a condition that tells them apart may be missing. Identical values can stand only once.

Key:
[1] = test system: E. coli carrying specific resistance determinants; test: Activity against wild-type and engineered E. coli carrying specific AMEs or RMTs; format: cell-based; conditions: for Activity (MIC) E. coli AG006: strain AG006, WT; for Activity (MIC) E. coli AG007: strain AG007, AAC(3); for Activity (MIC) E. coli AG008: strain AG008, ANT(2’’); for Activity (MIC) E. coli AG009: strain AG009, AAC(6’); for Activity (MIC) E. coli AG036: strain AG036, ANT(4′,4′′); for Activity (MIC) E. coli AG103: strain AG103, armA; for Activity (MIC) E. coli AG105: strain AG105, AAC(2′); for Activity (MIC) E. coli AG166: strain AG166, APH(3′)
MRSA = test: Antibacterial activity against reference strains: MRSA; format: cell-based; conditions: for Antibacterial activity (MIC) MRSA AG038: strain AG038; for Antibacterial activity (MIC) MRSA AG042: strain AG042 carries the AAC(6)’, ANT(4’,4’’) and APH(3’) genes
[2] = test system: A1555G mutant mitochondrial hybrid ribosome; format: biochemical, human; conditions: for Selectivity A1555G: A1555G over wt bacterial ribosome; for IC50 A1555G: in vitro translation inhibition, A1555G mutant mitochondrial hybrid ribosome
[3] = test system: Mit13 hybrid ribosome (decoding A site of the human mitochondrial ribosome); format: biochemical; conditions: for Selectivity Mit 13: Mit13 over wt bacterial ribosome; for IC50 Mit13: in vitro translation inhibition, Mit13 hybrid ribosome
E. coli [4] = test: Antibacterial activity against reference strains: E. coli; conditions: for Antibacterial activity (MIC) E. coli AG001: strain AG001; for Antibacterial activity (MIC) E. coli AG003: strain AG003 carries the AAC(3) gene
[5] = test system: wild-type bacterial ribosome; test: Cell-free translation assay, wild-type bacterial ribosome; format: biochemical; conditions: in vitro translation inhibition
K. pneumoniae = test: Antibacterial activity against reference strains: K. pneumoniae; format: cell-based; conditions: strain AG215
E. cloacae = test: Antibacterial activity against reference strains: E. cloacae; format: cell-based; conditions: strain AG290
[6] = test system: Cyt14 hybrid ribosome (decoding A site of the human cytoplasmic ribosome); format: biochemical; conditions: for Selectivity Cyt14: Cyt14 over wt bacterial ribosome; for IC50 Cyt 14: in vitro translation inhibition, Cyt14 hybrid ribosome
[7] = test system: NIH 3T3 mouse embryonic fibroblast cells; format: cell-based
P. aeruginosa = test: Antibacterial activity against reference strains: P. aeruginosa; conditions: for Antibacterial activity (MIC) P. aeruginosa AG031: strain AG031 carries the APH(3’) gene
A. baumannii = test: Antibacterial activity against reference strains: A. baumannii; format: cell-based; conditions: strain AG225
[8] = test system: wild-type E. coli clinical isolates; test: MIC distribution, clinical wild-type E. coli isolates; format: cell-based; conditions: panel of wild-type clinical isolates
[9] = test system: wild-type E. cloacae clinical isolates; test: MIC distribution, clinical wild-type E. cloacae isolates; format: cell-based; conditions: panel of wild-type clinical isolates
[10] = test system: wild-type K. pneumoniae clinical isolates; test: MIC distribution, clinical wild-type K. pneumoniae isolates; format: cell-based; conditions: panel of wild-type clinical isolates
E coli = test: Neutropenic mouse thigh infection model; format: in vivo; conditions: dose 3 mg.kg^−1
[11] = test system: E. cloacae clinical isolates carrying two or more resistance determinants; format: cell-based; conditions: AAC(6’)
[12] = test system: E. coli clinical isolates carrying two or more resistance determinants; test: Activity against E. coli clinical isolates with multiple resistance determinants; format: cell-based
[13] = test system: Mycobacterium tuberculosis clinical isolates; test: microbe, parasite or virus in culture; format: cell-based; conditions: clinical isolates
[14] = test system: K. pneumoniae clinical isolates carrying two or more resistance determinants; format: cell-based; conditions: AAC(3), AAC(6’)
[15] = test system: Mycobacterium smegmatis wild type; test: Antibacterial activity, wild-type M. smegmatis
E. coli [16] = test: Neutropenic mouse E. coli septicemia model; format: in vivo
[17] = test system: E coli 70S ribosome (helix 44, A1408); test: Quantitative dimethyl sulfate footprinting of the 70S ribosome; format: binding; conditions: read-out: apparent Kd; DMS footprinting, % protection of N1 of A1408, E. coli 70S ribosome
Mycobacterium abscessus = test: microbe, parasite or virus in culture; format: cell-based

## CCSC1C(CO)OC(OC2C(N)CC(N)C(O)C2OC2OC(CO)C(OC3OC(CN)C(O)C(O)C3N)C2O)C(N)C1O (centres unmarked) [Compound 4, 4’-deoxy-4’-ethylthioparomomycin]
[1]
  Activity (MIC) E. coli AG006: 1 to 2 µg/mL
  Activity (MIC) E. coli AG007: 4 µg/mL
  Activity (MIC) E. coli AG008: 1 µg/mL
  Activity (MIC) E. coli AG009: 4 µg/mL
  Activity (MIC) E. coli AG036: 1 to 2 µg/mL
  Activity (MIC) E. coli AG103: 8 µg/mL
  Activity (MIC) E. coli AG105: 2 to 4 µg/mL
  Activity (MIC) E. coli AG166: 4 µg/mL
MRSA
  Antibacterial activity (MIC) MRSA AG038: 4 µg/mL
  Antibacterial activity (MIC) MRSA AG042: 2 to 4 µg/mL
[2]
  Selectivity A1555G: 1150
  IC50 A1555G: 46 µg/mL (≈ 69.7 µM)
[3]
  Selectivity Mit 13: 2775
  IC50 Mit13: 111 µg/mL (≈ 168 µM)
E. coli [4]
  Antibacterial activity (MIC) E. coli AG001: 8 µg/mL
  Antibacterial activity (MIC) E. coli AG003: 8 µg/mL
[5]
  IC50 wt: 0.04 µg/mL (≈ 0.0606 µM)
K. pneumoniae
  Antibacterial activity (MIC) K. pneumoniae AG215: 2 µg/mL
E. cloacae
  Antibacterial activity (MIC) E. cloacae AG290: 2 to 4 µg/mL
[6]
  Selectivity Cyt14: 1500
  IC50 Cyt 14: 60 µg/mL (≈ 90.9 µM)
[7]
  loss of cell viability: only minimal loss of cell viability
P. aeruginosa
  Antibacterial activity (MIC) P. aeruginosa AG031: 32 µg/mL
A. baumannii
  Antibacterial activity (MIC) A. baumannii AG225: 4 µg/mL

## CCC[C@H]1[C@H](O)[C@@H](N)[C@@H](O[C@H]2[C@H](O[C@@H]3O[C@H](CO)[C@@H](O[C@H]4O[C@@H](CN)[C@@H](O)[C@H](O)[C@H]4N)[C@H]3O)[C@@H](O)[C@H](N)C[C@@H]2N)O[C@@H]1CO [Compound 5, 4’-deoxy-4’-propylparomomycin]
[8]
  MIC90 E. coli: 2 µg/mL (≈ 3.12 µM)
[9]
  MIC90 E. cloacae: 1 µg/mL (≈ 1.56 µM)
[1]
  Activity (MIC) E. coli AG006: 0.5 to 1 µg/mL
  Activity (MIC) E. coli AG007: 2 µg/mL
  Activity (MIC) E. coli AG008: 0.5 to 1 µg/mL
  Activity (MIC) E. coli AG009: 1 to 2 µg/mL
  Activity (MIC) E. coli AG036: 1 µg/mL
  Activity (MIC) E. coli AG103: 2 µg/mL
  Activity (MIC) E. coli AG105: 1 µg/mL
  Activity (MIC) E. coli AG166: 1 to 2 µg/mL
[10]
  MIC90 K. pneumoniae: 1 µg/mL (≈ 1.56 µM)
MRSA
  Antibacterial activity (MIC) MRSA AG038: 1 to 2 µg/mL
  Antibacterial activity (MIC) MRSA AG042: 2 µg/mL
[2]
  Selectivity A1555G: 1733
  IC50 A1555G: 52 µg/mL (≈ 81 µM)
[3]
  Selectivity Mit 13: 5567
  IC50 Mit13: 167 µg/mL (≈ 260 µM)
E coli
  log reduction in colony-forming units (CFUs) compared to vehicle: 1.5 log
E. coli [4]
  Antibacterial activity (MIC) E. coli AG001: 1 to 2 µg/mL
  Antibacterial activity (MIC) E. coli AG003: 1 to 2 µg/mL
[11]; AAC(3)
  Activity (MIC) E. cloacae isolate 201435487: 0.5 µg/mL
[11]; AAC(3), APH(3’)
  Activity (MIC) E. cloacae isolate 201333207: 0.5 µg/mL
[11]; AAC(3), RmtC
  Activity (MIC) E. cloacae isolate 201385168: 1 µg/mL
[11]; ANT(2’’)
  Activity (MIC) E. cloacae isolate 201430601: 0.5 µg/mL
[5]
  IC50 wt: 0.03 µg/mL (≈ 0.0467 µM)
[12]; AAC(3), AAC(6’)
  Activity (MIC) E. coli isolate 201430298: 1 µg/mL
  Activity (MIC) E. coli isolate 2014251408: 2 µg/mL
[12]; AAC(3), APH(3’), RmtB
  Activity (MIC) E. coli isolate 2014405344: 4 µg/mL
[12]; AAC(6’), ANT(2’’)
  Activity (MIC) E. coli isolate 201441114: 1 µg/mL
K. pneumoniae
  Antibacterial activity (MIC) K. pneumoniae AG215: 0.5 µg/mL
E. cloacae
  Antibacterial activity (MIC) E. cloacae AG290: 0.5 to 1 µg/mL
[6]
  Selectivity Cyt14: 2133
  IC50 Cyt 14: 64 µg/mL (≈ 99.7 µM)
[7]
  loss of cell viability: only minimal loss of cell viability
[13]
  MIC M. tuberculosis clinical isolates: 1 µg/mL (≈ 1.56 µM)
P. aeruginosa
  Antibacterial activity (MIC) P. aeruginosa AG031: 8 µg/mL
P. aeruginosa; strain AG220 carries the APH(3’) gene
  Antibacterial activity (MIC) P. aeruginosa AG220: 2 to 4 µg/mL
A. baumannii
  Antibacterial activity (MIC) A. baumannii AG225: 2 µg/mL
[14]
  Activity (MIC) K. pneumoniae isolate 201440494: 0.5 µg/mL
  Activity (MIC) K. pneumoniae isolate 2014310114: 0.25 µg/mL
[14]; RmtB
  Activity (MIC) K. pneumoniae isolate 2014310108: 1 µg/mL
[15]
  Antibacterial activity (MIC) Wild-type M. smegmatis: 0.16 µg/mL
E. coli [16]; 4 mg.kg^−1
  reduction of bacterial burden in the blood, more than the parent paromomycin at the same dose level: 1 log
E. coli [16]; 4 mg.kg^−1 dose
  reduction of bacterial burden in the blood: approximately 1.5 log units
[17]
  Kd: 340 ± 50 nM
Mycobacterium abscessus; AAC(2’) gene deleted
  MIC M. abscessus, AAC(2’) gene deleted: 4 µg/mL and 2 µg/mL
Mycobacterium abscessus; AAC(2’) gene present
  MIC M. abscessus: 4 µg/mL (≈ 6.23 µM)
